The nature of experiment [1]: Counterscreen for inhibitors of Trypanosoma brucei methionyl tRNA synthetase (MetRS): Luminescence-based cell-based high throughput dose response assay to identify compounds that are cytotoxic to Jurkat human T lymphocyte cells. It is filed as functional. In general terms: A counterscreen serves to expose hits that act by an unwanted route or on another target.
The nature of experiment [2]: Late stage counterscreen for inhibitors of Trypanosoma brucei methionyl tRNA synthetase (MetRS): Luminescence-based cell-based high throughput dose response assay to identify compounds that are cytotoxic to Jurkat human T lymphocyte cells. It is filed as functional.
The target of experiment [3] is T1, Methionyl-tRNA synthetase, putative (Trypanosoma brucei brucei, UniProt Q38C91).
T1 sequence (Q38C91 whole entry): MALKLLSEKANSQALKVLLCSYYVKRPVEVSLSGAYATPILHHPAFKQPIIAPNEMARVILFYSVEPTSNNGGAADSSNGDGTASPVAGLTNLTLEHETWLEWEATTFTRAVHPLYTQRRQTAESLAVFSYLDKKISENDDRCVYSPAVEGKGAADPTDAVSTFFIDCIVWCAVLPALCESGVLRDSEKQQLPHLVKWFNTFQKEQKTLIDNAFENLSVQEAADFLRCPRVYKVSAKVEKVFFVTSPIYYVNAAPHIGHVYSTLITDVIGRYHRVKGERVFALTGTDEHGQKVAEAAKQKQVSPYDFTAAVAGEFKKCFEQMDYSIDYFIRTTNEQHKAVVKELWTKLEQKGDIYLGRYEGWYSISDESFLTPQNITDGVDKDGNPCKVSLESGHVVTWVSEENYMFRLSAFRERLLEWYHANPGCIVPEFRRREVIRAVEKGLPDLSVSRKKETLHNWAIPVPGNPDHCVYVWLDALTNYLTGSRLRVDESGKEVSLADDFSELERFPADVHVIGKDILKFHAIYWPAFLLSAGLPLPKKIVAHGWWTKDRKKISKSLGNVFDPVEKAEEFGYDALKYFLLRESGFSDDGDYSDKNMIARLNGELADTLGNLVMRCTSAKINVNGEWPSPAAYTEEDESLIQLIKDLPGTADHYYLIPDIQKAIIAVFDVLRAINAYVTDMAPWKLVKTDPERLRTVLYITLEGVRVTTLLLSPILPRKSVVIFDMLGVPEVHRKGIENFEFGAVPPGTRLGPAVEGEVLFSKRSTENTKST
Format: functional, Trypanosoma brucei brucei strain 927/4 GUTat10.1.

Experiment [4] deals with T1, Methionyl-tRNA synthetase, putative. It is filed as functional, Trypanosoma brucei brucei strain 927/4 GUTat10.1. The source holds these as a separate data set.
Experiment [5] addresses DNA (cytosine-5)-methyltransferase 1 (Homo sapiens, UniProt P26358). Put plainly: DNMT1 methyltransferase inhibitors, confirmation, biochemical, fluorescent molecular beacon (AID 602386). Format: functional.
The target in experiment [6] is E3 ubiquitin-protein ligase UHRF1 (Homo sapiens, UniProt Q96T88). The experiment in a line: Counterscreen for inhibitors of 5-meCpG-binding domain protein 2 (MBD2): TRFRET-based biochemical high throughput dose response assay to identify inhibitors of binding of ubiquitin-like with PHD and ring finger domains 1 (UHRF1) to methylated oligonucleotide.
E3 ubiquitin-protein ligase UHRF1, sequence (Q96T88 whole entry, the tested form may be a part): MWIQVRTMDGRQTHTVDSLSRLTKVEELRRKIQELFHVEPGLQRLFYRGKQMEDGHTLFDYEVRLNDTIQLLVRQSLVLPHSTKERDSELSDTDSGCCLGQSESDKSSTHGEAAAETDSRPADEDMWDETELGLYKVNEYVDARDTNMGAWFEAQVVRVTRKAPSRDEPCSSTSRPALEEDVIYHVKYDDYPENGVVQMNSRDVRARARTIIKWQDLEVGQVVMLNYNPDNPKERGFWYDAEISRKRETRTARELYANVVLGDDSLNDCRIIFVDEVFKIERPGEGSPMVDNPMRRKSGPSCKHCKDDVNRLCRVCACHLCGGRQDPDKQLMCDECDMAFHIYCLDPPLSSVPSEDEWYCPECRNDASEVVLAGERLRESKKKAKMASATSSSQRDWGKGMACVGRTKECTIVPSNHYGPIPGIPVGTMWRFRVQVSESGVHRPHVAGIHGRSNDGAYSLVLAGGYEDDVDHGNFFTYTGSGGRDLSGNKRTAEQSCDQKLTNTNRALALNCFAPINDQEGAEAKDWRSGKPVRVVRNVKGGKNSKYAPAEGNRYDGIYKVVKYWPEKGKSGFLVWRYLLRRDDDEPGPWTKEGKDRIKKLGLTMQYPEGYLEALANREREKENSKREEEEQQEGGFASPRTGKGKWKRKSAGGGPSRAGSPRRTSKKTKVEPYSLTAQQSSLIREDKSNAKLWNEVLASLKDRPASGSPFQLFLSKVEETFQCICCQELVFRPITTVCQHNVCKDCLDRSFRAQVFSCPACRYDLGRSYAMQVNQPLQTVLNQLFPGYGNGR
Experiment [7] addresses 72 kDa type IV collagenase (Homo sapiens, UniProt P08253). Put plainly: Dose Response validation of uHTS RPN11 inhibitor hits using a MMP-2 Fluorescence assay. It is filed as functional.
The next experiment concerns the target Prothrombin (Bos taurus, UniProt P00735). The experiment in a line: thrombin inhibition, dose response, biochemical, fluorescence polarization, uHTS hits (AID 602369). Format: functional. Background: In fluorescence polarisation assays a small probe gives low polarisation when free and higher when bound to something large.
Experiment [8] concerns the target DNA dC->dU-editing enzyme APOBEC-3A (Homo sapiens, UniProt P31941). Put plainly: APOBEC3A DNA deaminase inhibitors, dose response, biochemical (AID 504722). Format: functional.
For experiment [9], the target named is DNA dC->dU-editing enzyme APOBEC-3G (Homo sapiens, UniProt Q9HC16). Put plainly: Dose Response confirmation of small molecule APOBEC3G DNA Deaminase Inhibitors via a fluorescence-based single-stranded DNA deaminase assay. [Related pubchem assays (depositor defined):AID493012, AID493028]. It is filed as functional.
For experiment [10], the target named is T2, Carboxy-terminal domain RNA polymerase II polypeptide A small phosphatase 1 (Homo sapiens, UniProt Q9GZU7).
T2 sequence (Q9GZU7 whole entry): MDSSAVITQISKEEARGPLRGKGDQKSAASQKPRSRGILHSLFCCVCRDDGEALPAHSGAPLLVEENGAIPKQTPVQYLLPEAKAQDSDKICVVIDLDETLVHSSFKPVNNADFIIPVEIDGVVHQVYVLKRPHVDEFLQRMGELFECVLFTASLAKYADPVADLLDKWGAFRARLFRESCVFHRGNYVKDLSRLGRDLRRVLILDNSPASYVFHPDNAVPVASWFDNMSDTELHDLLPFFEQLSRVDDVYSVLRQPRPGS
Put plainly: inhibitors of CTDSP1, concentration-response testing, biochemical assay, absorbance-based, actives from ultra-high-throughput screening (AID 540297). It is filed as functional.

Experiment [11] has as its target 26S proteasome non-ATPase regulatory subunit 14 (Homo sapiens, UniProt O00487). Put plainly: inhibition of proteasome subunit RPN11 – biochemical, fluorescence polarization, uHTS hits, confirmation (AID 602368). Format: functional.
Experiment [12] addresses Eukaryotic translation initiation factor 4E (Mus musculus, UniProt P63073). Put plainly: eIF4E–eIF4G protein interaction inhibitors, dose response, biochemical, TR-FRET (AID 855).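 Further: potency for disrupting eIF4E binding to eIF4GI seen as loss of FRET.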 It is filed as functional. (Time-resolved FRET reads energy transfer from a long-lived donor to a nearby acceptor.)
In experiment [13] the target is T3, Fibrinogen beta chain (Homo sapiens, UniProt P02675). The experiment in a line: Fluorescence polarization-based biochemical high throughput dose response assay to identify inhibitors that disrupt the binding of a cyclic peptide (Tn7) to the fibrin proteolytic product D-Dimer and fragment E complex [DD(E )].
T3 sequence (P02675 whole entry, the tested form may be a part): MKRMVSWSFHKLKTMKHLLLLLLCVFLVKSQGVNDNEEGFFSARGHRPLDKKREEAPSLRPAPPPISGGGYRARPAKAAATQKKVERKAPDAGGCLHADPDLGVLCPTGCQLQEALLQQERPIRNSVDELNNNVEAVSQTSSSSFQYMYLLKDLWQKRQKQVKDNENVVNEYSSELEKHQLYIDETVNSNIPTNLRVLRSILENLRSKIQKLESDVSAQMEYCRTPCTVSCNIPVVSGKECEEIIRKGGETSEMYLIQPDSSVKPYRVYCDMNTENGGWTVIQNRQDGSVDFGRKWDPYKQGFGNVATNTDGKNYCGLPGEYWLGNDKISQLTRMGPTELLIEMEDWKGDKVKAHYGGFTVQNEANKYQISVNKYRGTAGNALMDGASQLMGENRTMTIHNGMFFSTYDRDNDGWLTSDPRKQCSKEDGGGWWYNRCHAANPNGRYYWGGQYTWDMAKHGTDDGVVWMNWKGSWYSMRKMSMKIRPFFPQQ
The target of experiment [14] is T3, Fibrinogen beta chain. Put plainly: Fluorescence polarization-based biochemical high throughput dose response assay to identify inhibitors that disrupt the binding of a cyclic peptide (Tn6) to the fibrin proteolytic product D-Dimer and fragment E complex [DD(E )].
Experiment [15] has as its system BJ. Put plainly: cytotoxicity toward BJ-TERT-LT-ST fibroblasts, dose response, cell-based, RAS-independent, luminescence (AID 1935).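 Further: BJ fibroblasts immortalized with TERT plus LT and ST oncogenes.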 Format: functional. The settings on record: Homo sapiens.
Experiment [16] concerns BJ. The experiment in a line: cytotoxicity toward BJ-TERT fibroblasts, dose response, cell-based, RAS-independent, luminescence (AID 1933). Format: functional. To be noted: Homo sapiens.
Experiment [17] can be described thus: Luminescence Cell-Based Dose Response HTS to Identify Inhibitors of 5'UTR Stem-Loop Driven Prion Protein mRNA Translation in H4 Neuroglioblastoma Cells. [Related pubchem assays: 1827 (Project Summary), 1813 (Primary HTS)]. It is filed as functional.
The nature of experiment [18]: inhibitors of firefly luciferase expression or activity, dose response, H4 neuroglioma cells, luminescence (AID 1990). It is filed as functional, cell-based.
Experiment [19] is described as follows: cytotoxicity toward DRD oncogenic fibroblasts, dose response, cell-based, non-viral oncogenic, luminescence (AID 1934). Format: functional. The settings on record: Homo sapiens.
The nature of experiment [20]: HEK293 cell cytotoxicity, dose response, cytotoxicity control, dry powder samples (AID 720567). It is filed as functional, cell-based.
Experiment [21] in a line: inhibitors of SNCA 5'UTR-driven reporter translation, confirmation, H4 neuroglioma cells, luminescence (AID 1988). Format: functional, cell-based.
Experiment [22] deals with BJ. The experiment in a line: cells. It is filed as functional, cell-based. The settings on record: Homo sapiens.
Experiment [23] can be described thus: cytotoxicity in HEK-293T cells, dose response, cytotoxicity control for TCR NF-kB inhibitor project, luminescence, T-cell screen hits (AID 489026).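 Further: cells exposed to compound about 14 hours before the viability readout.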 It is filed as functional, cell-based.
Experiment [24] is described as follows: Luminescence-based cell-based high throughput dose response assay to identify activators of the DAF-12 from the parasite S. stercoralis (ssDAF-12). It is filed as functional.
In experiment [25] the target is T4, Oxysterols receptor LXR-beta (Homo sapiens, UniProt P55055).
T4 sequence (P55055 whole entry): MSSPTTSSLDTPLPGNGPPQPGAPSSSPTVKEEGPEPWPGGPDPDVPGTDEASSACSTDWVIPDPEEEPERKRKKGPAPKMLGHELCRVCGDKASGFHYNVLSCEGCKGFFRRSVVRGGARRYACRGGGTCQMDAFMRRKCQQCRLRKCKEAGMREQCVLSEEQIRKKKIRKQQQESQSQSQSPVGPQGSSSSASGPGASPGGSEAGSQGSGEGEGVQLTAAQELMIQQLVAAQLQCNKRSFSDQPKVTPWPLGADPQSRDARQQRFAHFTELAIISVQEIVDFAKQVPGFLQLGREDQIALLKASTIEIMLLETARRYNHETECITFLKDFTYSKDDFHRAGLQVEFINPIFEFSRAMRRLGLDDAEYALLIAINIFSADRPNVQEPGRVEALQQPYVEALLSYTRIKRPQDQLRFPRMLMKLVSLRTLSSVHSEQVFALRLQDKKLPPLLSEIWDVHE
The experiment in a line: LXR agonists, Gal4 luciferase reporter, dose response, counter-screen for ssDAF-12 agonist project, cell-based, luminescence, HEK293, S. stercoralis campaign (AID 720737). The settings on record: read-out: IC50 (the source's name). It is filed as functional.

The target of a further experiment is Paired box protein Pax-8 (Homo sapiens, UniProt Q06710). Put plainly: inhibitors of PAX8-driven TPO luciferase reporter, dose response, RMG-I cells, cherry-pick (AID 687027).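 Further: luciferase reporter driven by Pax8 target thyroperoxidase promoter measured by SteadyGlo luminescence.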 Format: functional, cell-based.
Paired box protein Pax-8, sequence (Q06710 whole entry): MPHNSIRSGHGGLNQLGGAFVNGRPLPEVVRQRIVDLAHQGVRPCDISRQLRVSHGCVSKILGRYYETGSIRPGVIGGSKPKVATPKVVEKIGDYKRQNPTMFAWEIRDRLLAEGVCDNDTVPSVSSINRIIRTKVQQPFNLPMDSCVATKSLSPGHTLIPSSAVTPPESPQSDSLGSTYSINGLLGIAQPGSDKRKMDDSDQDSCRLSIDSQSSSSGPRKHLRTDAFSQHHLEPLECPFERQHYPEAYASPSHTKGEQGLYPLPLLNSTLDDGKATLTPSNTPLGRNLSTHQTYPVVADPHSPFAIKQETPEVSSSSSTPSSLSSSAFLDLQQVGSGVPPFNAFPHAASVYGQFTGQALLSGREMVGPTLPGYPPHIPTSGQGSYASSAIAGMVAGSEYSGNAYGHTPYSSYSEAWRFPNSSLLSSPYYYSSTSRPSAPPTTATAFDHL
The nature of experiment [26]: NIH:OVCAR-3 ovarian cancer cell cytotoxicity, dose response, PAX8 inhibitor project, plate reader, dry powder samples (AID 743044). It is filed as functional, cell-based.
The target in the next experiment is Kallikrein-7 (Homo sapiens, UniProt P49862). Put plainly: Fluorescence Intensity-based biochemical primary high throughput dose response assay to identify activators of kallikrein-7 (K7) zymogen.
Kallikrein-7, sequence (P49862 whole entry): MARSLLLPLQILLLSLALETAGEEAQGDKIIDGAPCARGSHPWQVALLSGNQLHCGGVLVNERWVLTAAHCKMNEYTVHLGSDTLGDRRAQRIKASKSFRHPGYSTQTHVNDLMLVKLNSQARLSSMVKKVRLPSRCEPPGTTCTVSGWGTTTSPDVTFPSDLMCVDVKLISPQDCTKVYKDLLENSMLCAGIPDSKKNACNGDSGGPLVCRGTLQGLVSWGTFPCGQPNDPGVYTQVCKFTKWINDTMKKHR

The source made the active and inactive calls.

26S proteasome non-ATPase regulatory subunit 14, sequence (O00487 whole entry): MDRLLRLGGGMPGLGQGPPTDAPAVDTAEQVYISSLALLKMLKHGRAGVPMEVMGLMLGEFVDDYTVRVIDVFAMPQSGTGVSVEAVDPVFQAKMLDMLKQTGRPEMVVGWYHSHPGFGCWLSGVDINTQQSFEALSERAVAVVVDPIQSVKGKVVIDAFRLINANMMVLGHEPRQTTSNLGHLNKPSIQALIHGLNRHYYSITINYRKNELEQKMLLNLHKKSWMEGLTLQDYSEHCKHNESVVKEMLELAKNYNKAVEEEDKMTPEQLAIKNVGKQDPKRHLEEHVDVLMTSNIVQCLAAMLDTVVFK
DNA dC->dU-editing enzyme APOBEC-3A, sequence (P31941 whole entry): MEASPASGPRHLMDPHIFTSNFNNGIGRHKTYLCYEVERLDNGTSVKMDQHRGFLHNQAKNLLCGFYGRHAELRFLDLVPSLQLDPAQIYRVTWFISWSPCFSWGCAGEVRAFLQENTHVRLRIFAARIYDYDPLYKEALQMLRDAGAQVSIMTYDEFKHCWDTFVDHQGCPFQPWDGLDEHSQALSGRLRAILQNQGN
DNA (cytosine-5)-methyltransferase 1, sequence (P26358 whole entry, the tested form may be a part): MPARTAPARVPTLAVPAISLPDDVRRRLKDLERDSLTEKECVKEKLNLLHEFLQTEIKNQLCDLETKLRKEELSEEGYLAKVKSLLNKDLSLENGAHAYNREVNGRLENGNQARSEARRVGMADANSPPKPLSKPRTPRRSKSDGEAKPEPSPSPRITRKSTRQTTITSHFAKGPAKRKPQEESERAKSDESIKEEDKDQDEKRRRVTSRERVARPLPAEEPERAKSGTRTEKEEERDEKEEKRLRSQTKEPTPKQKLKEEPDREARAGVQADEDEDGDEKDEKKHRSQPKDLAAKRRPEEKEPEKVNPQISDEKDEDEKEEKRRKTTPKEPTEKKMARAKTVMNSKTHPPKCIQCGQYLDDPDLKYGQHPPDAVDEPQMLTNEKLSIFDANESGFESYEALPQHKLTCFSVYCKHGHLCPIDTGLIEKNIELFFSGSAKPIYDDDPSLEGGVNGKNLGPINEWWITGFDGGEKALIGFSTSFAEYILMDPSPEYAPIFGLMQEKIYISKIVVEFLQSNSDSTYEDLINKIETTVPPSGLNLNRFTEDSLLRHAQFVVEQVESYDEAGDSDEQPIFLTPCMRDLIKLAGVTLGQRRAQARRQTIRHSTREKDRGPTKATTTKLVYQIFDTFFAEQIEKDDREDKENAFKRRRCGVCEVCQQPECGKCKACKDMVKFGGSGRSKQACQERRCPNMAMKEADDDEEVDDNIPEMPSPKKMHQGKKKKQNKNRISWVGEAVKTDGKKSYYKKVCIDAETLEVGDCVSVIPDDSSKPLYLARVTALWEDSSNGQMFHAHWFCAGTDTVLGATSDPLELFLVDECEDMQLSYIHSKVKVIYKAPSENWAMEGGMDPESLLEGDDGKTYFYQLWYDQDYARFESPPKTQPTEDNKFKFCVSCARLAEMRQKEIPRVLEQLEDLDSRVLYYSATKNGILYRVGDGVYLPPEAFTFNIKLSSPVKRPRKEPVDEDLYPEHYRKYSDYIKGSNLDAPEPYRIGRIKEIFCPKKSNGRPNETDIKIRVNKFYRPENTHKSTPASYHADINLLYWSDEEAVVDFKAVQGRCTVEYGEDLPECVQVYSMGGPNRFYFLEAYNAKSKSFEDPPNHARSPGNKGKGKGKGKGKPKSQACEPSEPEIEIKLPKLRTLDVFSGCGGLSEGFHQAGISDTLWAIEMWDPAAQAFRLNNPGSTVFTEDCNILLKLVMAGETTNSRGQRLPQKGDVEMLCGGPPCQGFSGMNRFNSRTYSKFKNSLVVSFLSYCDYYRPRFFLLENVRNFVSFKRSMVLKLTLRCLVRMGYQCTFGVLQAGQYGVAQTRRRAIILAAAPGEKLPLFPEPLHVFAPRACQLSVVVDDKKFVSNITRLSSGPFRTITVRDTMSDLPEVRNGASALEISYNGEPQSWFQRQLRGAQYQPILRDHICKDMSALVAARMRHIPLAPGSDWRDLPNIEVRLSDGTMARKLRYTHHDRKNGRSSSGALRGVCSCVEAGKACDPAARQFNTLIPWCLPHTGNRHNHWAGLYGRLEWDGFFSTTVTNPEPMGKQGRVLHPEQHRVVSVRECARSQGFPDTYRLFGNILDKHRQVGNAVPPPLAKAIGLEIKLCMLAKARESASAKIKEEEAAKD
72 kDa type IV collagenase, sequence (P08253 whole entry): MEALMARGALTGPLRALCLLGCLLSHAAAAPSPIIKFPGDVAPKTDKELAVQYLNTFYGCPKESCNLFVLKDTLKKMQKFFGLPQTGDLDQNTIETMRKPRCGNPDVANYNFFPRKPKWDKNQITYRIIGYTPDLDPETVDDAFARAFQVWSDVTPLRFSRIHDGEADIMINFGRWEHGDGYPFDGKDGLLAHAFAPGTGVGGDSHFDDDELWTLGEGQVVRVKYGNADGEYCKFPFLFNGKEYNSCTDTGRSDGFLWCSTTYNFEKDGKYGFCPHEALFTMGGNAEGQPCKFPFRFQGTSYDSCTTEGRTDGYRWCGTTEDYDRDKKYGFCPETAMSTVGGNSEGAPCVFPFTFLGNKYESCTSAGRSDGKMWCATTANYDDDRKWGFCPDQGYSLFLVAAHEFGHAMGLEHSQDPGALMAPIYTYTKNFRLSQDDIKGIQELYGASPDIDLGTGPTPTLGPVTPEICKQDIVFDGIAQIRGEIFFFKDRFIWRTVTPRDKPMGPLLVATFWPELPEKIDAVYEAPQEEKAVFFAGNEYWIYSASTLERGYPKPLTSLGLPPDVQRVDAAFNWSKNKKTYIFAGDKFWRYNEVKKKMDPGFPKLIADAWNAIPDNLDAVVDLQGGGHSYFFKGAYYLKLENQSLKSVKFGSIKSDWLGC
Eukaryotic translation initiation factor 4E, sequence (P63073 whole entry, the tested form may be a part): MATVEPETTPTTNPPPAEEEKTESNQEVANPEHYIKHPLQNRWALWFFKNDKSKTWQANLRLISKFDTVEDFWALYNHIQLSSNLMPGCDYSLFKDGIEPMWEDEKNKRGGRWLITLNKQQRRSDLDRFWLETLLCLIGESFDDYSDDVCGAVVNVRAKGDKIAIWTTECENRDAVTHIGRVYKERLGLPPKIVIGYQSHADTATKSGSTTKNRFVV

By IC50 is commonly meant the concentration needed to halve the response being measured. For `O=C1[C@@H]2Cc3c([nH]c4ccccc34)C(c3cccc([N+](=O)[O-])c3)N2C(=O)CN1CCCO` (some centres undefined), the IC50 in [1] was 83.3 µM (inactive); in experiment [2], > 83.3 µM (inactive); in [3] it was 0.911 µM (active); in experiment [4], 0.528 µM (active).

`Cc1c2cnn(CC(=O)Nc3c(F)c(F)cc(F)c3F)c(=O)c2c(C)n1Cc1ccccc1F`: the IC50 in experiment [5] was 7.6 µM (active); in experiment [6] it was > 43.8 µM (inactive); in experiment [7], > 100 µM (inactive); at Prothrombin, 50.5 µM (active); in experiment [8], 49.3 µM (active); in experiment [9], 9.31 µM (active). In addition, the IC50 in [10] was 2.96 µM (active); in experiment [11] it was 19.5 µM (active); in experiment [12], 50 µM (inactive).

`CN1CCS/C1=C/C=C1/SC(=S)N(Cc2ccccc2)C1=O`: the IC50 at Fibrinogen beta chain [13] is > 83.3 µM (inactive); on Fibrinogen beta chain [14], 10.2 µM (inactive).

The term AC50 denotes the concentration at which the activity in the assay is half-maximal. On to `CCCOC(=O)c1[nH]c2c(c1C)C(=O)CC(c1cccs1)C2` (centres undefined), for which the EC50 with BJ [15] is 0.399 µM (active); in the experiment on BJ [16] it was 0.567 µM (active); in experiment [17] it was 1.01 µM (active); in experiment [18] it was 0.391 µM (active); in experiment [19], 0.615 µM (active); in experiment [21], 0.167 µM (active). Moreover, the EC50 with BJ [22] was 1.82 µM (active). The half-maximal activity concentration (AC50) in [20] is 0.594 µM (active). For the same molecule, the IC50 in experiment [23] was > 80 µM (inactive).

For `Cc1ccnc(NC(=O)c2ccc3nc(O)c(O)nc3c2)c1`, in [24], the IC50 was > 67.5 µM (inactive). Moreover, in [25], the EC50 was > 67.5 µM (inactive).

As for `C[C@@H]1CN([C@H](C)CO)S(=O)(=O)c2ccc(C#Cc3ccc(F)cc3)cc2O[C@H]1CN(C)C(=O)NC1CCCCC1`, the concentration at half-maximal activity (AC50) at Paired box protein Pax-8 was 9.47 µM (active); in [26], 48.1 µM (active).

As for `Nc1nc2ccc(Cl)cc2cc1C(=O)NCCCN1CCOCC1`, the EC50 on Kallikrein-7 was 28.3 µM (inactive).

Source of the values: ChEMBL document CHEMBL1201862, “PubChem BioAssay data set” (2004).
